# Like-named read-outs stand apart in the source and are kept apart here. Marks after values point to notes of the source that are not given here.
# Columns and labels:
# [1] = Phase II clinical trial, oral tablets, departments of obstetrics/gynecology, adverse events; format: in vivo, human; details: human phase II, oral, obstetrics/gynecology
# Description: (§1) Double-blinded randomized controlled trials were carried out to compare the adverse events of oral levo-ornidazole with racemate treatment groups. Two separate studies were conducted for patients with infections from either department of stomatology or obstetrics/gynecology.
# [2] = Acute toxicity in mice (LD50); details: mouse, in vivo
# [3] = tested on: motor balance and coordination; experiment: Motor balance and coordination, modified beam walking method; details: mice, n=10
# Description: Motor balance and coordination were tested using a modified beam walking method. Mice were put on a smooth beam tilted at an angle of 70 degree. Mice passed the test by standing on the beam for 0.5 minute without falling off. All the mice were pre-screened before the studies, and a total of 110 mice were selected by passing the beam test in 3 consecutive tries. The selected mice were divided into 11 groups with 10 mice in each group (half male and half female). At certain time points after drug administration, mice were tested on the beam for 3 consecutive times. A mouse was counted as failing to the test if it fell off the beam for 2 or more times.
# The dose volume was 0.2 mL/10 gram and infusion rate was 0.2 mL/10 seconds. Chlorpromazine was used as the positive control.
# [4] = Phase II clinical trial, oral tablets, departments of stomatology, adverse events; format: in vivo, human; details: human phase II, oral, stomatology
# Description: as §1
# [5] = tested on: Strychnine-induced convulsion; experiment: Anticonvulsant effects on Strychnine-induced convulsion in mice; format: in vivo; details: n=10; for Convulsion Latency: Mean ± SD
# Description: (§2) Mice are randomized into 4 treatment groups (n=10 with half male and half female): dextro- or levo-ornidazole (dosage 40, 80, 160 mg/kg), vehicle control group (15% propylene glycol in 0.9% sodium chloride, 20 mL/kg) and the positive control group. Animals are treated with known convulsion-inducing agents, followed by the drug or vehicle control given intravenously. The dose volume is 20 mL/kg with an infusion rate of 0.2 mL/10 seconds. The anticonvulsant effects are observed and recorded (see Tables 2-6).
# [6] = tested on: thiosemicarbazide-induced convulsion; experiment: Anticonvulsant effects on thiosemicarbazide-induced convulsion in mice; format: in vivo; details: n=10; for Convulsion Latency / Time to Death: Mean ± SD
# Description: as §2
# [7] = rat, in vivo
# glutamate = experiment: Effects on excitatory neurotransmitter glutamate levels in mice brain; format: in vivo; details: FIG. 4
# From the text: In another experiment, the effects on excitatory neurotransmitter levels by levo- and dextro-ornidazole were compared.
# [8] = tested on: spontaneous activities of mice; details: both, mouse, in vivo, iv
# Description: Mice weighing 18-22 g, half male and half female, were placed in the laboratory 24 hours before the test to adapt to the environment. The room temperature was controlled at 24±2° C. Animals were fasted for 8 hours before testing, and then placed in a transparent cage. The number of spontaneous activities of mice was counted by an automatic device (model XZ-4 by Drug Research Institute of China Academy of Medical Sciences). Mice were pre-screened by counting their spontaneous activities for five minutes and unqualified mice were excluded. A total of 110 mice were selected and divided into 11 groups with 10 mice in each group.
# Chlorpromazine (3 mg/kg) was used as the positive control. The dose volume was 0.2 mL/10 gram and infusion rate was 0.2 mL/10 seconds.
smiles,measurement,setting,value
"Cc1ncc([N+](=O)[O-])n1CC(O)CCl (racemic) [Racemic ornidazole, 1-(3-Chloro-2-hydroxypropyl)-2-methyl-5-nitroimidazole]","Abdominal pain, # of Patients with AE",[1],1
same,"Abdominal pain, Incidence (%)",[1],0.70%
same,"Appetite drop, # of Patients with AE",[1],2
same,"Appetite drop, Incidence (%)",[1],1.41%
same,"Bitter taste, # of Patients with AE",[1],1
same,"Bitter taste, Incidence (%)",[1],0.70%
same,"Bloating, # of Patients with AE",[1],3
same,"Bloating, Incidence (%)",[1],2.11%
same,"Blurred vision, # of Patients with AE",[1],1
same,"Blurred vision, Incidence (%)",[1],0.70%
same,"Breast tenderness, # of Patients with AE",[1],1
same,"Breast tenderness, Incidence (%)",[1],0.70%
same,"Chest tightness, # of Patients with AE",[1],2
same,"Chest tightness, Incidence (%)",[1],1.41%
same,"Dazzle, # of Patients with AE",[1],1
same,"Dazzle, Incidence (%)",[1],0.70%
same,"Diarrhea, # of Patients with AE",[1],1
same,"Diarrhea, Incidence (%)",[1],0.70%
same,"Dizziness, # of Patients with AE",[1],4
same,"Dizziness, Incidence (%)",[1],2.82%
same,"Dry mouth, # of Patients with AE",[1],1
same,"Dry mouth, Incidence (%)",[1],0.70%
same,"Headache, # of Patients with AE",[1],1
same,"Headache, Incidence (%)",[1],0.70%
same,"Hypersomnia, # of Patients with AE",[1],8
same,"Hypersomnia, Incidence (%)",[1],5.63%
same,"Hypodynamia, # of Patients with AE",[1],2
same,"Hypodynamia, Incidence (%)",[1],1.41%
same,"Nausea, # of Patients with AE",[1],7
same,"Nausea, Incidence (%)",[1],4.93%
same,"Oral malodor, # of Patients with AE",[1],0
same,"Oral malodor, Incidence (%)",[1],0.00%
same,"Rash, # of Patients with AE",[1],0
same,"Rash, Incidence (%)",[1],0.00%
same,"Stomach ache, # of Patients with AE",[1],0
same,"Stomach ache, Incidence (%)",[1],0.00%
same,"Stomach discomfort, # of Patients with AE",[1],4
same,"Stomach discomfort, Incidence (%)",[1],2.82%
same,Total incidence rate of adverse events,[1],19.72%
same,"Vertigo, # of Patients with AE",[1],8
same,"Vertigo, Incidence (%)",[1],5.63%
same,"Vomiting, # of Patients with AE",[1],1
same,"Vomiting, Incidence (%)",[1],0.70%
same,Patients with adverse events (total),[1]; out of 143 (levo) / 142 (racemate) patients,28 patients
same,LD50,[2]; intravenous injection,306 mg/kg
same,LD50,"[2]; ip, intraperitoneal injection",1120 mg/kg
same,LD50,[2]; oral gavage,769 mg/kg
same,Number of Animals Fall Off,"[3]; 40 mg/kg, 0.5 hours post-dose",1
same,Number of Animals Fall Off,"[3]; 40 mg/kg, 1 hours post-dose",0
same,Number of Animals Fall Off,"[3]; 40 mg/kg, 2 hours post-dose",0
same,Number of Animals Fall Off,"[3]; 40 mg/kg, 3 hours post-dose",0
same,Number of Animals Fall Off,"[3]; 40 mg/kg, 4 hours post-dose",0
same,Number of Animals Fall Off,"[3]; 80 mg/kg, 0.5 hours post-dose",0
same,Number of Animals Fall Off,"[3]; 80 mg/kg, 1 hours post-dose",0
same,Number of Animals Fall Off,"[3]; 80 mg/kg, 2 hours post-dose",2
same,Number of Animals Fall Off,"[3]; 80 mg/kg, 3 hours post-dose",0
same,Number of Animals Fall Off,"[3]; 80 mg/kg, 4 hours post-dose",0
same,Number of Animals Fall Off,"[3]; 160 mg/kg, 0.5 hours post-dose",10##
same,Number of Animals Fall Off,"[3]; 160 mg/kg, 1 hours post-dose",8##
same,Number of Animals Fall Off,"[3]; 160 mg/kg, 2 hours post-dose",6
same,Number of Animals Fall Off,"[3]; 160 mg/kg, 3 hours post-dose",4
same,Number of Animals Fall Off,"[3]; 160 mg/kg, 4 hours post-dose",3
same,"Bloating, # of Patients with AE",[4],1
same,"Bloating, Incidence (%)",[4],0.71%
same,"Constipation, # of Patients with AE",[4],0
same,"Constipation, Incidence (%)",[4],0.00%
same,"Drowsy, # of Patients with AE",[4],3
same,"Drowsy, Incidence (%)",[4],2.13%
same,"Dry mouth, # of Patients with AE",[4],1
same,"Dry mouth, Incidence (%)",[4],0.71%
same,"Headache, # of Patients with AE",[4],1
same,"Headache, Incidence (%)",[4],0.71%
same,"Hypersomnia, # of Patients with AE",[4],6
same,"Hypersomnia, Incidence (%)",[4],4.26%
same,"Hypodynamia, # of Patients with AE",[4],1
same,"Hypodynamia, Incidence (%)",[4],0.71%
same,"Loss of appetite, # of Patients with AE",[4],1
same,"Loss of appetite, Incidence (%)",[4],0.71%
same,"Nausea, # of Patients with AE",[4],4
same,"Nausea, Incidence (%)",[4],2.84%
same,"Palpitation, # of Patients with AE",[4],1
same,"Palpitation, Incidence (%)",[4],0.71%
same,"Pruritus, # of Patients with AE",[4],1
same,"Pruritus, Incidence (%)",[4],0.71%
same,"Rash, # of Patients with AE",[4],2
same,"Rash, Incidence (%)",[4],1.42%
same,"Sourregurgitation, # of Patients with AE",[4],1
same,"Sourregurgitation, Incidence (%)",[4],0.71%
same,"Stomach discomfort, # of Patients with AE",[4],7
same,"Stomach discomfort, Incidence (%)",[4],4.96%
same,"Stupor, # of Patients with AE",[4],1
same,"Stupor, Incidence (%)",[4],0.71%
same,Total incidence rate of adverse events,[4],17.73%
same,"Vertigo, # of Patients with AE",[4],2
same,"Vertigo, Incidence (%)",[4],1.42%
same,"Vomiting, # of Patients with AE",[4],1
same,"Vomiting, Incidence (%)",[4],0.71%
same,Patients with adverse events (total),[4]; out of 139 (levo) / 141 (racemate) patients,25 patients
"Cc1ncc([N+](=O)[O-])n1C[C@@H](O)CCl [D-ornidazole, R-(+)-ornidazole]",Convulsion Latency,[5]; 40 mg/kg i.v.,6.0 ± 0.7 min
same,Mortality Rate,[5]; 40 mg/kg i.v.,10/10
same,Convulsion Latency,[5]; 80 mg/kg i.v.,8.0 ± 2.0 min
same,Mortality Rate,[5]; 80 mg/kg i.v.,7/10
same,Convulsion Latency,[5]; 160 mg/kg i.v.,9.1 ± 2.6 min
same,Mortality Rate,[5]; 160 mg/kg i.v.,1/10**
same,Convulsion Latency,[6]; 40 mg/kg i.v.,94.3 ± 25.1 min
same,Time to Death,[6]; 40 mg/kg i.v.,153.9 ± 43.7 min
same,Convulsion Latency,[6]; 80 mg/kg i.v.,121.8 ± 16.8 min
same,Time to Death,[6]; 80 mg/kg i.v.,213.6 ± 56.5 min
same,Mortality Rate,[6]; 160 mg/kg i.v.,2/10**
same,Rate of Convulsion,[6]; 160 mg/kg i.v.,3/10**
same,"Plasma protein binding, levo- vs dextro-ornidazole",plasma protein,Similar
same,"Distribution in different region of brain, levo- vs dextro-ornidazole",[7],Similar
same,Effect on glutamate levels in cerebrum and cerebellum,glutamate,significantly decreased
same,Spontaneous Activities (per 5 min),"[8]; 40 mg/kg, 0.5 h",52 ± 23 per 5 min
same,Spontaneous Activities (per 5 min),"[8]; 40 mg/kg, 1 h",44 ± 19 per 5 min
same,Spontaneous Activities (per 5 min),"[8]; 40 mg/kg, 2 h",35 ± 20 per 5 min
same,Spontaneous Activities (per 5 min),"[8]; 40 mg/kg, 3 h",47 ± 33 per 5 min
same,Spontaneous Activities (per 5 min),"[8]; 40 mg/kg, 4 h",62 ± 31 per 5 min
same,Spontaneous Activities (per 5 min),"[8]; 80 mg/kg, 0.5 h",25 ± 15 per 5 min
same,Spontaneous Activities (per 5 min),"[8]; 80 mg/kg, 1 h",16 ± 21 per 5 min
same,Spontaneous Activities (per 5 min),"[8]; 80 mg/kg, 2 h",17 ± 15 per 5 min
same,Spontaneous Activities (per 5 min),"[8]; 80 mg/kg, 3 h",27 ± 17 per 5 min
same,Spontaneous Activities (per 5 min),"[8]; 80 mg/kg, 4 h",34 ± 17 per 5 min
same,Spontaneous Activities (per 5 min),"[8]; 160 mg/kg, 0.5 h",0 ± 0 per 5 min
same,Spontaneous Activities (per 5 min),"[8]; 160 mg/kg, 1 h",0 ± 0 per 5 min
same,Spontaneous Activities (per 5 min),"[8]; 160 mg/kg, 2 h",0 ± 0 per 5 min
same,Spontaneous Activities (per 5 min),"[8]; 160 mg/kg, 3 h",3 ± 3 per 5 min
same,Spontaneous Activities (per 5 min),"[8]; 160 mg/kg, 4 h",5 ± 5 per 5 min
